The term EC50 denotes the midpoint of the concentration-response curve.

Structures are written as SMILES. Like-named read-outs stand apart in the source and are kept apart here.

Here are results for seven compounds from US20230348369A1 (Cytokinetics, Inc., priority 2020, published 2023).

Assay [1] concerns the target human NAMPT (Homo sapiens, UniProt P43490). In words: Human recombinant enzyme assay (NMN fluorescence biochemical assay, activation of NAMPT). The procedure, abridged:
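Activation of recombinant human NAMPT (6 nM) with 2.5 mM ATP, 20 μM PRPP and 150 μM nicotinamide in 50 mM HEPES pH 7.2, 1 mM DTT, 1 mM CHAPS, 50 mM NaCl, 100 mM MgCl2; 60 min, ambient temperature. NMN formed was derivatized with acetophenone/KOH/formic acid, fluorescence read at 355/460 nm after 40 min.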

In assay [2] the target is T1, endogenous NAMPT (Homo sapiens, UniProt P43490).
T1 construct: stimulate the endogenous NAMPT in a native cellular environment; endogenous in cells; host or cells: SH-SY5Y neuroblastoma cells
The assay is described as follows: Cellular NAD+ modulation assay in neuroblastoma SH-SY5Y cells. The format is cell-based.

Where [3] appears, read: Table A, human recombinant NAMPT, NMN formation, 60 min, read-out: EC50 Human.
Setting [4] is: Table B, SH-SY5Y cells, cellular NAD levels, doxorubicin, 40 hours, read-out: EC50.
The mark [5] stands for this setting: Table A, human recombinant NAMPT, NMN formation, 60 min.
[6] abbreviates: Table B, SH-SY5Y cells, cellular NAD levels, doxorubicin, 40 hours.

Sequence of human NAMPT (P43490 whole entry): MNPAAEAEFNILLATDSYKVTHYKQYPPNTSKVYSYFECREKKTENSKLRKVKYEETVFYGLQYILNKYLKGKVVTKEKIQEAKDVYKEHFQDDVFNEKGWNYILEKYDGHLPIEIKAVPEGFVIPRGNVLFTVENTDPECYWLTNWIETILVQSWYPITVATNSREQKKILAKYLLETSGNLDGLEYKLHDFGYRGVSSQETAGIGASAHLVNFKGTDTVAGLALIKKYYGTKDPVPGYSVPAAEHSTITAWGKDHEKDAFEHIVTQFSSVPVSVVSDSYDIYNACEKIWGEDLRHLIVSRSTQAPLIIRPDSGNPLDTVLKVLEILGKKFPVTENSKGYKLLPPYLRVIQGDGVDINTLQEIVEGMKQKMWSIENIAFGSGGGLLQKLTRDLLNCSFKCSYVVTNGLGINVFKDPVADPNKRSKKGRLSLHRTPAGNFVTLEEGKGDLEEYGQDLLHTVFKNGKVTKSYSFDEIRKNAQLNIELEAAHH
T1 sequence (P43490 whole entry): as above

In the case of `CC(C)(C)OC(=O)N1CCC2(CC1)CC2CNC(=O)NCc1ccc(C(N)=O)cc1` (stereo not drawn) [Compound 33, tert-butyl 1-((3-(4-carbamoylbenzyl)ureido)methyl)-6-azaspiro[2.5]octane-6-carboxylate], the values for the concentration giving a half-maximal response (EC50) in assay [1] (setting [3]) and in assay [2] (setting [4]) were 19.8 µM and 8.4 µM, respectively.

Regarding `CN(C(=O)CCCCCNC(=O)NCc1ccc(Cl)cc1)c1ccccc1` [Compound 268, 6-(3-(4-chlorobenzyl)ureido)-N-methyl-N-phenylhexanamide], the “AC1.4 Human” value in assay [1] (setting [5]) was 0.3 µM. In addition, the EC50 is 0.5 µM in assay [1] (setting [3]) and 0.1 µM in assay [2] (setting [4]). In assay [2] (setting [6]), the AC0.3 worked out at 0.1 µM.

As to `CC(C)(O)CN1CCN(C(=O)C2CC3(CC(NC(=O)NCc4ccc(Cl)cc4)C3)C2)CC1` (stereo not drawn) [Compound 110], the figures for the EC50 in assay [1] and in assay [2] were 3.9 µM and 0.3 µM, respectively. Also, in assay [1] (setting [5]), the “AC1.4 Human” value was 0.7 µM. The AC0.3 in assay [2] (setting [6]) is 0.5 µM.

For `COc1ccc(CNC(=O)NCCCCC2CCN(C(=O)c3ccccc3)CC2)cc1` [Compound 20, 1-(4-(1-benzoylpiperidin-4-yl)butyl)-3-(4-methoxybenzyl)urea], the “AC1.4 Human” value in assay [1] (setting [5]) turned out to be 0.2 µM. Further, the EC50 came out at 4.7 µM in assay [1] (setting [3]) and 13.9 µM in assay [2] (setting [4]). Moreover, the AC0.3 in assay [2] (setting [6]) amounted to 0.4 µM.

Turning to `Cc1ccccc1C(=O)N1CC[C@]2(C1)C[C@@H](NC(=O)NCc1ccc(Cl)cc1)C2` [Compound 162, 1-(4-chlorobenzyl)-3-((2r,4s)-6-(2-methylbenzoyl)-6-azaspiro[3.4]octan-2-yl)urea], the “AC1.4 Human” value in assay [1] (setting [5]) was determined as 6.2 µM. The values for the EC50 in assay [1] (setting [3]) and in assay [2] (setting [4]) were 21.7 µM and 1 µM, respectively. The compound also came in with an AC0.3 in assay [2] (setting [6]) of 0.7 µM.

Take `COc1ccc(CNC(=O)NC2CC3(C2)CN(C(=O)c2ccc(C)cc2)C3)cc1` [Compound 145, 1-(4-methoxybenzyl)-3-(2-(4-methylbenzoyl)-2-azaspiro[3.3]heptan-6-yl)urea]: the “AC1.4 Human” value in assay [1] (setting [5]) worked out at 1.4 µM. The EC50 turned out to be 45.3 µM in assay [1] (setting [3]) and 3.1 µM in assay [2] (setting [4]). For the same compound, in assay [2] (setting [6]), the AC0.3 worked out at 1.1 µM.

`CC(C)(C)OC(=O)N1CCC2(CC1)CC2CNC(=O)NCc1ccc(Cl)cc1` (stereo not drawn) [Compound 27, tert-butyl 1-((3-(4-chlorobenzyl)ureido)methyl)-6-azaspiro[2.5]octane-6-carboxylate]: the EC50 in assay [1] was 21.5 µM; in assay [2] it was 5.8 µM.
